Test results as given in US9365604B2, “Oligomer-nucleoside phosphate conjugates” (NEKTAR THERAPEUTICS, priority 2007, dated 2016).
Read-outs that look alike come from different tables or passages of the source.

Experiments:
A2780 = assay: Sulforhodamine B (SRB) growth inhibition assay; assay type: cell-based, Human; details: for GI50: SRB assay
Experimental: (§1) In Vitro Screening of PEG-Gemcitabine Monophosphate in Selected Human Cancer Cell Lines
(§2) The aim was to determine the GI50 values for PEG-floxuridine conjugates against a panel of cell lines, and based on previous data from Xenograft studies. […] The test articles were solubilized in dimethylsulfoxide and were tested at four different molar (M) concentrations; 10^−4, 10^−5, 10^−6, M. GI50 (the concentration needed to reduce the growth of treated cells to half that of untreated control cells) was calculated for each condition ([(Ti−Tz)/(C-Tz)]×100=50, where Ti, Tz, and C refer to absorbance values obtained from each tested concentration, time zero, and control treatment, respectively).
as §2, with “The objective” for “The aim”, “the IC50” for “the GI50”, “for PEG-gemcitabine” for “for PEG-floxuridine”, “in dimethyl sulfoxide” for “in dimethylsulfoxide”, “10^−6, 10^−7” for “10^−6,”, “condition ([(Ti−Tz)/(C−Tz)]×100=50,” for “condition ([(Ti−Tz)/(C-Tz)]×100=50,”

COLO205 = assay: Sulforhodamine B (SRB) growth inhibition assay; assay type: cell-based, Human; details: for GI50: COLO205, SRB assay
Experimental: as §1, §2
as §2, with “The objective” for “The aim”, “the IC50” for “the GI50”, “for PEG-gemcitabine” for “for PEG-floxuridine”, “in dimethyl sulfoxide” for “in dimethylsulfoxide”, “10^−6, 10^−7” for “10^−6,”, “condition ([(Ti−Tz)/(C−Tz)]×100=50,” for “condition ([(Ti−Tz)/(C-Tz)]×100=50,”

HCT15 = assay: Sulforhodamine B (SRB) growth inhibition assay; assay type: cell-based, Human; details: for GI50: SRB assay
Experimental: as §1, §2
as §2, with “The objective” for “The aim”, “the IC50” for “the GI50”, “for PEG-gemcitabine” for “for PEG-floxuridine”, “in dimethyl sulfoxide” for “in dimethylsulfoxide”, “10^−6, 10^−7” for “10^−6,”, “condition ([(Ti−Tz)/(C−Tz)]×100=50,” for “condition ([(Ti−Tz)/(C-Tz)]×100=50,”

HT29 = assay: Sulforhodamine B (SRB) growth inhibition assay; assay type: cell-based, Human; details: for GI50: SRB assay
Experimental: as §1, §2
as §2, with “The objective” for “The aim”, “the IC50” for “the GI50”, “for PEG-gemcitabine” for “for PEG-floxuridine”, “in dimethyl sulfoxide” for “in dimethylsulfoxide”, “10^−6, 10^−7” for “10^−6,”, “condition ([(Ti−Tz)/(C−Tz)]×100=50,” for “condition ([(Ti−Tz)/(C-Tz)]×100=50,”

Hop62 = assay: Sulforhodamine B (SRB) growth inhibition assay; assay type: cell-based, Human; details: for GI50: SRB assay
Experimental: as §1, §2
as §2, with “The objective” for “The aim”, “the IC50” for “the GI50”, “for PEG-gemcitabine” for “for PEG-floxuridine”, “in dimethyl sulfoxide” for “in dimethylsulfoxide”, “10^−6, 10^−7” for “10^−6,”, “condition ([(Ti−Tz)/(C−Tz)]×100=50,” for “condition ([(Ti−Tz)/(C-Tz)]×100=50,”

MCF7 = assay: Sulforhodamine B (SRB) growth inhibition assay; assay type: cell-based, Human; details: for GI50: SRB assay
Experimental: as §1, §2
as §2, with “The objective” for “The aim”, “the IC50” for “the GI50”, “for PEG-gemcitabine” for “for PEG-floxuridine”, “in dimethyl sulfoxide” for “in dimethylsulfoxide”, “10^−6, 10^−7” for “10^−6,”, “condition ([(Ti−Tz)/(C−Tz)]×100=50,” for “condition ([(Ti−Tz)/(C-Tz)]×100=50,”

NCI/ADR-RES = assay: Sulforhodamine B (SRB) growth inhibition assay; assay type: cell-based, Human
Experimental: as §1
(§3) The aim was to determine the GI50 values for PEG-floxuridine conjugates against a panel of cell lines, and based on previous data from Xenograft studies. The cells were exposed for 24 h, and cell viability assessed by using the Sulphorhodamine (SRB) assay. The test articles were solubilized in dimethylsulfoxide and were tested at four different molar (M) concentrations; 10^−4, 10^−5, 10^−6, M. GI50 (the concentration needed to reduce the growth of treated cells to half that of untreated control cells) was calculated for each condition ([(Ti−Tz)/(C-Tz)]×100=50, where Ti, Tz, and C refer to absorbance values obtained from each tested concentration, time zero, and control treatment, respectively).
as §3, with “The objective” for “The aim”, “the IC50” for “the GI50”, “for PEG-gemcitabine” for “for PEG-floxuridine”, “in dimethyl sulfoxide” for “in dimethylsulfoxide”, “10^−6, 10^−7” for “10^−6,”, “condition ([(Ti−Tz)/(C−Tz)]×100=50,” for “condition ([(Ti−Tz)/(C-Tz)]×100=50,”

AS283 = assay: In vitro cytotoxicity assay (CellTiter-Glo); assay type: cell-based
Experimental: (§4) The objective of these studies was to determine the IC50 values for PEG-gemcitabine conjugates against gemcitabine-resistant cell lines based on data from previous Xenograft studies. The cells were exposed for 72 h, and cell viability assessed by using the CellTiter-Glo assay.

CCRF-CEM = assay: In vitro cytotoxicity assay (CellTiter-Glo); assay type: cell-based
Experimental: as §4

DLD-1 = assay: In vitro cytotoxicity assay (CellTiter-Glo); assay type: cell-based
Experimental: as §4

HL-60 = assay: In vitro cytotoxicity assay (CellTiter-Glo); assay type: cell-based
Experimental: as §4

K-562 = assay: In vitro cytotoxicity assay (CellTiter-Glo); assay type: cell-based
Experimental: as §4

NCI-H23 = assay: In vitro cytotoxicity assay (CellTiter-Glo); assay type: cell-based
Experimental: as §4

NCI-H460 = assay: In vitro cytotoxicity assay (CellTiter-Glo); assay type: cell-based
Experimental: as §4

NCI-H522 = assay: In vitro cytotoxicity assay (CellTiter-Glo); assay type: cell-based
Experimental: as §4

RL = assay: In vitro cytotoxicity assay (CellTiter-Glo); assay type: cell-based
Experimental: as §4

SW-620 = assay: In vitro cytotoxicity assay (CellTiter-Glo); assay type: cell-based
Experimental: as §4

[1] = on a mM basis
Experimental: Cells were inoculated into 24-well microtiter plates in 100 μL at 5×10^3 cells/well, in duplicate. After 24 h, test articles were added to the cells for 24 or 48 h, after which time the supernatant from each of the wells was collected and stored below −15° C. until LC/MS analysis.

MDCK cells = assay: Bi-directional permeability in MDCK cells
From the text: (§5) Bi-Directional Permeability of PEG-Floxuridine Conjugates in Caco-2 and MDCK Cells

Caco-2 cells = assay: Bi-directional permeability in Caco-2 cells
From the text: as §5

[2] = GI50 of conjugate vs gemcitabine

SMILES: COCCOCCOCCOCCOCCOCCOCCOP(=O)(O)OC[C@H]1O[C@@H](n2ccc(N)nc2=O)C(F)(F)[C@@H]1O.Cl [Gemcitabine Mono (mPEG7), 5′-gemcitabine methoxy hepta(ethylene glycol) phosphate hydrochloride]
- ratio vs gem (GI50) A2780 (A2780; [2]): 2
- GI50 (A2780; 48 h drug exposure, read-out: GI50 (molar concentration) in Cell Line A2780): 0.15 µM
- GI50 (A2780; cells exposed for 24 h, read-out: GI50 values (μM) A2780): 0.15 µM
- GI50 (COLO205; 48 h drug exposure, read-out: GI50 (molar concentration) in Cell Line COLO205): 0.18 µM
- GI50 (COLO205; cells exposed for 24 h, read-out: GI50 values (μM) COLO205): 0.18 µM
- ratio vs gem (GI50) COLO-205 (COLO205; COLO-205, GI50 of conjugate vs gemcitabine): 1
- ratio vs gem (GI50) HCT15 (HCT15; [2]): 14
- GI50 (HCT15; 48 h drug exposure, read-out: GI50 (molar concentration) in Cell Line HCT15): 2.3 µM
- GI50 (HCT15; cells exposed for 24 h, read-out: GI50 values (μM) HCT15): 2.3 µM
- ratio vs gem (GI50) HT29 (HT29; [2]): 15
- GI50 (HT29; 48 h drug exposure, read-out: GI50 (molar concentration) in Cell Line HT29): 32 µM
- GI50 (HT29; cells exposed for 24 h, read-out: GI50 values (μM) HT29): 32 µM
- ratio vs gem (GI50) Hop62 (Hop62; [2]): 1
- GI50 (Hop62; 48 h drug exposure, read-out: GI50 (molar concentration) in Cell Line Hop62): 2.4 µM
- GI50 (Hop62; cells exposed for 24 h, read-out: GI50 values (μM) Hop62): 2.4 µM
- ratio vs gem (GI50) MCF7 (MCF7; [2]): 2
- GI50 (MCF7; 48 h drug exposure, read-out: GI50 (molar concentration) in Cell Line MCF7): 0.16 µM
- GI50 (MCF7; cells exposed for 24 h, read-out: GI50 values (μM) MCF7): 0.16 µM
- GI50 (NCI/ADR-RES; 48 h drug exposure, read-out: GI50 (molar concentration) in Cell Line NCI/ADR-RES): 2 µM
- GI50 (NCI/ADR-RES; cells exposed for 24 h, read-out: GI50 values (μM) NCI/ADR-RES): 2 µM
- Ratio vs gem (IC50) AS283 (AS283): 3
- IC50 (AS283; 72 h exposure, CellTiter-Glo): 398 nM
- Ratio vs gem (IC50) CCRF-CEM (CCRF-CEM): 1
- IC50 (CCRF-CEM; 72 h exposure, CellTiter-Glo): 10 nM
- Ratio vs gem (IC50) DLD-1 (DLD-1): 2
- IC50 (DLD-1; 72 h exposure, CellTiter-Glo): 36 nM
- Ratio vs gem (IC50) HL-60 (HL-60): 2
- IC50 (HL-60; 72 h exposure, CellTiter-Glo): 2.6 nM
- Ratio vs gem (IC50) K-562 (K-562): 2
- IC50 (K-562; 72 h exposure, CellTiter-Glo): 1150 nM
- Ratio vs gem (IC50) NCI-H23 (NCI-H23): 7
- IC50 (NCI-H23; 72 h exposure, CellTiter-Glo): 47 nM
- Ratio vs gem (IC50) NCI-H460 (NCI-H460): 3
- IC50 (NCI-H460; 72 h exposure, CellTiter-Glo): 48 nM
- Ratio vs gem (IC50) NCI-H522 (NCI-H522): 6
- IC50 (NCI-H522; 72 h exposure, CellTiter-Glo): 26 nM
- Ratio vs gem (IC50) RL (RL): 1
- IC50 (RL; 72 h exposure, CellTiter-Glo): 259 nM
- Ratio vs gem (IC50) SW-620 (SW-620): 4
- IC50 (SW-620; 72 h exposure, CellTiter-Glo): 182 nM
- remains after 24 and 48 h [1]: approximately 80%
- Papp A -> B (MDCK cells): <0.06 10^−6 cm/s
- Papp B -> A (MDCK cells): <0.08 10^−6 cm/s
- Significant efflux (MDCK cells): No
- percent recovery A -> B (MDCK cells): 94%
- percent recovery B -> A (MDCK cells): 96%
- Papp A -> B (Caco-2 cells): <0.06 10^−6 cm/s
- Papp B -> A (Caco-2 cells): <0.08 10^−6 cm/s
- Significant efflux (Caco-2 cells): No
- percent recovery A -> B (Caco-2 cells): 74%
- percent recovery B -> A (Caco-2 cells): 86%
